{"source": "ChEMBL document CHEMBL5149985", "about": "“Discovery of cytotoxic natural products from Red Sea sponges: Structure and synthesis” (Eur J Med Chem, 2021)", "key": {"[1]": {"test_system": "Caco-2", "test": "Anticancer activity against human Caco-2 cells assessed as inhibition of cell growth", "type": "functional, cell-based"}, "[2]": {"test_system": "KB 3-1", "test": "Anticancer activity against human KB 3-1 cells assessed as inhibition in cell growth", "type": "functional, cell-based"}, "[3]": {"test_system": "HepG2", "test": "Anticancer activity against human HepG2 cells assessed as inhibition of cell growth", "type": "functional, cell-based"}, "[4]": {"test_system": "HT-29", "test": "Anticancer activity against human HT-29 cells assessed as cell growth inhibition", "type": "functional, cell-based"}, "[5]": {"test_system": "MCF7", "test": "Potency index, ratio of latrunculin IC50 to test compound IC50 for cytotoxicity against human MCF7 cells", "type": "functional"}, "[6]": {"test_system": "MCF7", "test": "Anticancer activity against human MCF7 cells assessed as inhibition of cell growth incubated for 72 hrs by MTT assay", "type": "functional, cell-based", "settings": "MCF7, 72 h"}, "[7]": {"test": "Inhibition of actin (unknown origin) polymerization incubated for 20 mins in presence of ATP by ELISA analysis", "set-up": "species or system Homo sapiens"}, "[8]": {"test_system": "MDA-MB-231", "test": "Anticancer activity against human MDA-MB-231 cells assessed as inhibition of cell growth incubated for 72 hrs by MTT assay", "type": "functional, cell-based", "settings": "MDA-MB-231, 72 h"}, "[9]": {"species_on_record": "Homo sapiens", "test": "Inhibition of actin (unknown origin) polymerization at 1 uM incubated for 20 mins in presence of ATP by ELISA analysis relative to control"}, "[10]": {"test": "Inhibition of actin (unknown origin) polymerization at 100 nM incubated for 20 mins in presence of ATP by ELISA analysis relative to control", "settings": "Homo sapiens"}, "[11]": {"test_system": "HT-29", "test": "cells", "settings": "Homo sapiens, HT-29, 72 h", "description": "Anticancer activity against human HT-29 cells assessed as inhibition of cell growth measured after 72 hrs by SRB assay"}, "[12]": {"test_system": "MDA-MB-231", "test": "cells", "settings": "Homo sapiens, MDA-MB-231, 72 h", "description": "Anticancer activity against human MDA-MB-231 cells assessed as inhibition of cell growth measured after 72 hrs by SRB assay"}, "[13]": {"test_system": "A549", "test": "cells", "settings": "Homo sapiens, A549, 72 h", "description": "Anticancer activity against human A549 cells assessed as inhibition of cell growth measured after 72 hrs by SRB assay"}, "[14]": {"test_system": "L5178Y", "test": "Anticancer activity against mouse L5178Y cells assessed as reduction in cell growth by [3H] Thymidine assay relative to control", "type": "functional, cell-based"}, "[15]": {"test_system": "L5178Y", "test": "Anticancer activity against mouse L5178Y cells assessed as reduction in cell growth at 10 uG by [3H] Thymidine assay relative to control", "type": "functional", "settings": "dose 10 µg"}, "[16]": {"test_system": "L5178Y", "test": "Anticancer activity against mouse L5178Y cells assessed as reduction in cell growth at 3 uG by [3H] Thymidine assay relative to control", "type": "functional", "settings": "dose 3 µg"}, "[17]": {"test_system": "A549", "test": "Anticancer activity against human A549 cells assessed as inhibition of cell growth incubated for 96 hrs", "type": "functional, cell-based", "settings": "A549, 96 h"}, "[18]": {"test_system": "HepG2", "test": "Anticancer activity against human HepG2 cells assessed as inhibition of cell growth incubated for 96 hrs", "type": "functional, cell-based", "settings": "HepG2, 96 h"}, "[19]": {"test_system": "PC-3", "test": "Anticancer activity against human PC-3 cells assessed as inhibition of cell growth incubated for 96 hrs", "type": "functional, cell-based", "settings": "PC-3, 96 h"}, "[20]": {"test_system": "HCT-116", "test": "Anticancer activity against human HCT-116 cells assessed as inhibition of cell growth by MTS assay", "type": "functional, cell-based"}, "[21]": {"test_system": "T47D", "test": "Anticancer activity against human T47D cells assessed as cell growth inhibition incubated for 48 hrs by MTT assay", "type": "functional, cell-based"}, "[22]": {"test_system": "SK-BR-3", "test": "Anticancer activity against human SK-BR-3 cells assessed as cell growth inhibition incubated for 48 hrs by MTT assay", "type": "functional, cell-based", "settings": "SK-BR-3, 48 h"}, "[23]": {"test_system": "MDA-MB-231", "test": "Anticancer activity against human MDA-MB-231 cells assessed as cell growth inhibition incubated for 48 hrs by MTT assay", "type": "functional, cell-based", "settings": "MDA-MB-231, 48 h"}, "[24]": {"test_system": "MCF7", "test": "Anticancer activity against human MCF7 cells assessed as cell growth inhibition incubated for 48 hrs by MTT assay", "type": "functional, cell-based", "settings": "MCF7, 48 h"}, "[25]": {"test_system": "BT-474", "test": "Anticancer activity against human BT-474 cells assessed as cell growth inhibition incubated for 48 hrs by MTT assay", "type": "functional, cell-based", "settings": "BT-474, 48 h"}, "[26]": {"test_system": "HCT-116", "test": "Anticancer activity against human HCT-116 cells assessed as reduction in cell viability measured after 72 hrs by MTT assay", "settings": "HCT-116, 72 h"}, "[27]": {"test_system": "HeLa", "test": "Anticancer activity against human HeLa cells assessed as reduction in cell viability measured after 72 hrs by MTT assay"}, "[28]": {"test_system": "MDA-MB-231", "test": "Anticancer activity against human MDA-MB-231 cells assessed as reduction in cell viability measured after 72 hrs by MTT assay", "type": "functional, cell-based", "settings": "MDA-MB-231, 72 h"}, "[29]": {"test_system": "HCT-116", "test": "Anticancer activity against human HCT-116 cells assessed as inhibition of cell growth incubated for 72 hrs by MTT assay", "type": "functional, cell-based", "settings": "HCT-116, 72 h"}, "[30]": {"test_system": "HeLa", "test": "Anticancer activity against human HeLa assessed as inhibition of cell growth incubated for 48 hrs by SRB assay", "type": "functional, cell-based"}, "[31]": {"test_system": "HeLa", "test": "Antiproliferative activity against human HeLa cells assessed as cell viability measured after 24 hrs by MTT assay", "type": "functional, cell-based"}, "[32]": {"test_system": "A549", "test": "Anticancer activity against human A549 cells assessed as inhibition of cell growth incubated for 24 hrs by MTT assay", "type": "functional, cell-based", "settings": "A549, 24 h"}, "[33]": {"test_system": "HeLa", "test": "Anticancer activity against human HeLa cells assessed as inhibition of cell growth incubated for 24 hrs by MTT assay", "type": "functional, cell-based"}, "[34]": {"test_system": "MCF7", "test": "Anticancer activity against human MCF7 cells assessed as inhibition of cell growth incubated for 24 hrs by MTT assay", "type": "functional, cell-based", "settings": "MCF7, 24 h"}, "[35]": {"test_system": "SK-MEL-28", "test": "Anticancer activity against human MEL-28 cells assessed as cell growth inhibition", "type": "functional, cell-based"}, "[36]": {"test_system": "P388", "test": "Anticancer activity against mouse P388 cells assessed as cell growth inhibition", "type": "functional, cell-based"}, "[37]": {"test_system": "A549", "test": "Anticancer activity against human A549 cells assessed as cell growth inhibition", "type": "functional, cell-based"}}, "data": [{"smiles": "CC1=CC[C@H]2[C@@H]([C@@H]1CC[C@H]1[C@]3(C)CC[C@H](O)C(C)(C)O[C@H]3CC[C@]1(C)O)C(C)(C)CC[C@]2(C)O", "note": "[SIPHOLENOL L]", "values": [{"measurement": "IC50", "setting": "[1]", "value": 26.6, "unit": "µM"}, {"measurement": "IC50", "setting": "[2]", "value": 5.1, "unit": "nM"}, {"measurement": "IC50", "setting": "[3]", "value": 24, "unit": "µM"}, {"measurement": "IC50", "setting": "[4]", "value": 4480, "unit": "nM"}]}, {"smiles": "C/C1=C/C(=O)O[C@@H]2C[C@@H](CC[C@H](C)/C=C\\C=C\\CC1)O[C@@](O)([C@@H]1CSC(=O)N1CO)C2", "values": [{"measurement": "Ratio IC50", "setting": "[5]", "value": 4}, {"measurement": "IC50", "setting": "[6]", "value": 120, "unit": "nM"}, {"measurement": "IC50", "setting": "[7]", "value": 210, "unit": "nM"}, {"measurement": "IC50", "setting": "[8]", "value": 2990, "unit": "nM"}, {"measurement": "inhibition", "setting": "[9]", "value": 90, "unit": "%"}, {"measurement": "inhibition", "setting": "[10]", "value": 35, "unit": "%"}]}, {"smiles": "COc1cccc2c1C(=O)c1c(O)c3c(c(O)c1C2=O)C[C@@](O)(C(=O)CO)C[C@@H]3O[C@H]1C[C@H](N)[C@H](O)[C@H](C)O1", "note": "[DOXORUBICIN]", "values": [{"measurement": "IC50", "setting": "[11]", "value": 0.4, "unit": "µM"}, {"measurement": "IC50", "setting": "[12]", "value": 0.3, "unit": "µM"}, {"measurement": "IC50", "setting": "[13]", "value": 0.35, "unit": "µM"}]}, {"smiles": "CC1(C)CCC[C@]2(C)[C@H]3C[C@@H](O)[C@]4(C)C5=C(COC5=O)[C@@H](O)C[C@H]4[C@]3(C)CC[C@@H]12", "values": [{"measurement": "IC50", "setting": "[14]", "value": 7.5, "unit": "nM"}, {"measurement": "inhibition (INH)", "setting": "[15]", "value": 55.3, "unit": "%"}, {"measurement": "inhibition (INH)", "setting": "[16]", "value": 40.5, "unit": "%"}]}, {"smiles": "CC(=O)O[C@@H]1OC=C2C1[C@]1(C)C(C[C@@H]2OC(C)=O)[C@]2(C)CCC3C(C)(C)CCC[C@]3(C)C2C[C@H]1O", "note": "(stereo partly specified)", "values": [{"measurement": "IC50", "setting": "[17]", "value": 27, "unit": "nM"}, {"measurement": "IC50", "setting": "[18]", "value": 41, "unit": "nM"}, {"measurement": "IC50", "setting": "[19]", "value": 77, "unit": "nM"}]}, {"smiles": "CC[C@H](C)[C@@H]1NC(=O)[C@@H](C(O)C(C)C)NC(=O)[C@H](Cc2ccc(O)cc2)NC(=O)[C@H]([C@H](C)O)NC(=O)[C@@H](C)NC(=O)[C@H](CC(C)C)NC(=O)[C@H](Cc2ccc(O)cc2)NC(=O)[C@H](Cc2ccccc2)NC1=O", "note": "(stereo partly specified)", "values": [{"measurement": "IC50", "setting": "[11]", "value": 30, "unit": "µM"}, {"measurement": "IC50", "setting": "[12]", "value": 29, "unit": "µM"}, {"measurement": "IC50", "setting": "[13]", "value": 29, "unit": "µM"}]}, {"smiles": "CO[C@H]1C[C@H](CC[C@H](C)[C@H](O)[C@H](C)[C@H]2OC(=O)/C=C/C(C)=C/C[C@@H](O)C[C@H]3C=CC[C@@H](C[C@H](OC)[C@@H](C)[C@@H](O)C[C@@H](O)[C@H](C)[C@@H]([C@@H](C)[C@@H](O)[C@@H](C)CC[C@H]4C[C@H](OC)C[C@H](C)O4)OC(=O)/C(C)=C/C[C@H](O)C[C@@H]4C=CC[C@@H](C[C@H](OC)[C@@H](C)[C@@H](O)C[C@@H](O)[C@@H]2C)O4)O3)O[C@@H](C)C1", "values": [{"measurement": "IC50", "setting": "[20]", "value": 365, "unit": "nM"}]}, {"smiles": "O[C@]12CCCCCC[C@@H]3CCN4CCC[C@](O)(CCCCCC[C@@H]5CCN(CCC1)[C@H]2O5)[C@@H]4O3", "values": [{"measurement": "IC50", "setting": "[21]", "value": 46.1, "unit": "µM"}, {"measurement": "IC50", "setting": "[22]", "value": 18.3, "unit": "µM"}, {"measurement": "IC50", "setting": "[23]", "value": 15.2, "unit": "µM"}, {"measurement": "IC50", "setting": "[24]", "value": 8.5, "unit": "µM"}, {"measurement": "IC50", "setting": "[25]", "value": 15.2, "unit": "µM"}]}, {"smiles": "O=c1[nH]cc(F)c(=O)[nH]1", "note": "[FLUOROURACIL]", "values": [{"measurement": "IC50", "setting": "[26]", "value": 4.6, "unit": "µM"}, {"measurement": "IC50", "setting": "[27]", "value": 12.3, "unit": "µM"}, {"measurement": "IC50", "setting": "[28]", "value": 13, "unit": "µM"}]}, {"smiles": "CC(C)[C@@H](C)/C=C/[C@@H](C)[C@H]1CC[C@@]23O[C@@]24C(=O)C[C@H]2CC(=O)CC[C@]2(C)[C@H]4CC[C@]13C", "values": [{"measurement": "IC50", "setting": "[29]", "value": 45, "unit": "µM"}]}, {"smiles": "CCOC(=O)Cc1c(O)cc(Br)c(O)c1Br", "values": [{"measurement": "IC50", "setting": "[30]", "value": 13.3, "unit": "µM"}, {"measurement": "IC50", "setting": "[31]", "value": 13.3, "unit": "µM"}]}, {"smiles": "C#C/C=C\\CCCCCCCCCCC#CCCC(=O)NCCc1c[nH]c2ccccc12", "values": [{"measurement": "IC50", "setting": "[32]", "value": 25.9, "unit": "µM"}, {"measurement": "IC50", "setting": "[33]", "value": 17.4, "unit": "µM"}, {"measurement": "IC50", "setting": "[34]", "value": 34.1, "unit": "µM"}]}, {"smiles": "C=C1CCC[C@@H]2[C@@](C)(CC[C@@]3(C)CCn4cnc5ncnc(c54)N3O)[C@H](C)CC[C@@]12C", "values": [{"measurement": "IC50", "setting": "[35]", "value": 1180, "unit": "nM"}, {"measurement": "IC50", "setting": "[4]", "value": 1180, "unit": "nM"}, {"measurement": "IC50", "setting": "[36]", "value": 1180, "unit": "nM"}, {"measurement": "IC50", "setting": "[37]", "value": 1180, "unit": "nM"}]}]}
